PubChem BioAssay AID652057 (Broad Institute, 2013)
Values joined by “and” are separate entries in the source; they are usually repeats but may differ in a detail not shown here. Equal entries are not always repeated.

Test system: HeLa-JRFL Env/CEM21 cell fusion, luciferase
Experiment: blockers of HIV-1 envelope-mediated cell-cell fusion – cherry-pick, dose response (AID 652057)

Row | Compound | AC50
1 | O=C(C[C@H]1C[C@H]2c3cc(NC(=O)c4ccc5c(c4)OCO5)ccc3O[C@H]2[C@H](CO)O1)NCc1ccc(Oc2ccccc2)cc1 | 35.1 µM
2 | C[C@H](CO)N1C[C@H](C)[C@H](CN(C)S(=O)(=O)c2ccccc2)Oc2ncc(/C=C/c3ccccc3)cc2C1=O | 9.21 µM and 1.6 µM
